Data taken from paper PMC2164953, “Flexible synthesis of poison-frog alkaloids of the 5,8-disubstituted indolizidine-class. II: Synthesis of (-)-209B, (-)-231C, (-)-233D, (-)-235B", (-)-221I, and an epimer of 193E and pharmacological effects at neuronal nicotinic acetylcholine receptors” (Beilstein Journal of Organic Chemistry, 2007).
Values joined by “and” are separate entries in the source; they are usually repeats but may differ in a detail not shown here. Equal values may be shown once.

Experiments:
[1] = biological target: T1, α4β2 nicotinic receptor (Homo sapiens, UniProt P17787+P43681); assay: Two-electrode voltage-clamp recording of ACh-induced currents in X. laevis oocytes expressing recombinant α4β2 nicotinic receptor; format: cell-based
T1 construct: expressed in transfected cells; host or cells: Xenopus laevis oocytes (nuclear cDNA injection)
T1 sequence (P43681 29-627 limits assumed): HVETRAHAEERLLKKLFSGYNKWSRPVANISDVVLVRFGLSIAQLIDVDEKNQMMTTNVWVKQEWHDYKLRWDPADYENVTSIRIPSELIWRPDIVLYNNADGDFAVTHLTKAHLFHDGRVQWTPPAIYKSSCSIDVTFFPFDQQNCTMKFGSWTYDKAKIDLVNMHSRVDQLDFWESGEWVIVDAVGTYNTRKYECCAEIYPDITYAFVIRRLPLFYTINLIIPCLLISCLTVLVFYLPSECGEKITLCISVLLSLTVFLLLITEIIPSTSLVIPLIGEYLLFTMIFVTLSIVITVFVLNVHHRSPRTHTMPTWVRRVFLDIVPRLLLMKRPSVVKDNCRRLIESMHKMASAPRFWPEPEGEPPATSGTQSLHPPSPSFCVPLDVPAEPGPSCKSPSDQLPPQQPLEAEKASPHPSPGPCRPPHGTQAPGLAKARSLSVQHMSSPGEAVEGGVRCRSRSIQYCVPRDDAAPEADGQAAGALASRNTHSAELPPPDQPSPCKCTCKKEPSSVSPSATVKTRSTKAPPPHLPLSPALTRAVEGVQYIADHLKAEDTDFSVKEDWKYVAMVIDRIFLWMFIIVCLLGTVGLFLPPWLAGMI
T1 sequence (P17787 26-502): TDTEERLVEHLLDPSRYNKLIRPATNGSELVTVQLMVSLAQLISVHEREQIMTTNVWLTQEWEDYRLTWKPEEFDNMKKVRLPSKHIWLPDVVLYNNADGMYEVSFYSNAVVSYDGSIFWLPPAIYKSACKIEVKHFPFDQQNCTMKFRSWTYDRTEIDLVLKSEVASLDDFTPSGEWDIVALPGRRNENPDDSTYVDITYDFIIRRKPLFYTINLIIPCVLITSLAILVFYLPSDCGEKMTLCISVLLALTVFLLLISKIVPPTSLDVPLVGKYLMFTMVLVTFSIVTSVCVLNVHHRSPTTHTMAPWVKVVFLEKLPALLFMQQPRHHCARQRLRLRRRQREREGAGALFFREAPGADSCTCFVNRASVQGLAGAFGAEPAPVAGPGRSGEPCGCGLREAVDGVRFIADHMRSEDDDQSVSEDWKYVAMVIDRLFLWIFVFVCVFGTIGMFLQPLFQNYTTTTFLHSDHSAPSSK
Description: (§1) Figure 1 Inhibitory effect of (-)-231C on ACh-induced currents in X. laevis oocytes expressing recombinant nicotinic receptors. Currents were recorded in the voltage-clamp mode at -60 mV. Concentrations of ACh used were 1 μM for the α4β2 receptor and 100 μM for the α7 receptor. For test responses, oocytes were preincubated with (-)-231C for 3 min and then exposed to ACh with (-)-231C. A, representative traces showing the ACh-elicited currents in the absence and presence of (-)-231C (3 μM). Horizontal bars indicate the period of perfusion with ACh for 5 s. Vertical scale bars represent 0.5 μA on the α4β2 receptor, and 0.1 μA on the α7 receptor. B, concentration-response curves for (-)-231C on recombinant nicotinic receptors. Current responses to ACh in the presence of (-)-231C in each oocyte were normalized to the ACh responses (control responses) recorded in the same oocytes. Values represent the mean ± S.E.M. for five to six separate experiments.
as §1, with “Figure 2” for “Figure 1”, “of (-)-221I” for “of (-)-231C”, “with (-)-221I” for “with (-)-231C”, “with (-)-221I.” for “with (-)-231C.”, “for (-)-221I” for “for (-)-231C”, “five” for “five to six”
as §1, with “Figure 3” for “Figure 1”, “of (-)-epi-193E” for “of (-)-231C”, “with (-)-epi-193E” for “with (-)-231C”, “with (-)-epi-193E.” for “with (-)-231C.”, “for (-)-epi-193E” for “for (-)-231C”, “five” for “five to six”
(§2) Xenopus laevis oocytes were prepared as described previously. In brief, stage V-VI oocytes were isolated and microinjected with cDNAs encoding nicotinic receptor subunit into the nucleus. The α7 subunit cDNA was injected alone, whereas the mixture of α4 and β2 subunit cDNAs was injected in a ratio of 1:1. Oocytes were cultured at 19 °C for 3-7 days. An oocyte was placed in a tube-like chamber in which Ringer’s solution (82.5 mM NaCl, 2.5 mM KCl, 2.5 mM CaCl2, 1 mM MgCl2, and 5 mM HEPES, pH 7.4) containing 1 µM atropine was perfused by gravity (15 ml/min). Current responses were recorded under two-electrode voltage-clamp method. To apply a pulse of acetylcholine (ACh) to the oocyte, the perfusion fluid was switched to solution containing ACh, using a three-way Teflon solenoid valve (Parker Hannifin Corp., General Valve Division, Fairfield, NJ) controlled by a PC computer with pClamp7 software (Axon Instruments, Union City, CA). […]

[2] = biological target: T2, α7 nicotinic receptor (Homo sapiens, UniProt P36544); assay: Two-electrode voltage-clamp recording of ACh-induced currents in X. laevis oocytes expressing recombinant α7 nicotinic receptor; format: cell-based; conditions: for fold higher potency for blockade of α7 than of α4β2 receptor: ratio of IC50 values, α7 over α4β2
T2 construct: expressed in transfected cells; host or cells: Xenopus laevis oocytes (nuclear cDNA injection)
T2 sequence (P36544 23-502): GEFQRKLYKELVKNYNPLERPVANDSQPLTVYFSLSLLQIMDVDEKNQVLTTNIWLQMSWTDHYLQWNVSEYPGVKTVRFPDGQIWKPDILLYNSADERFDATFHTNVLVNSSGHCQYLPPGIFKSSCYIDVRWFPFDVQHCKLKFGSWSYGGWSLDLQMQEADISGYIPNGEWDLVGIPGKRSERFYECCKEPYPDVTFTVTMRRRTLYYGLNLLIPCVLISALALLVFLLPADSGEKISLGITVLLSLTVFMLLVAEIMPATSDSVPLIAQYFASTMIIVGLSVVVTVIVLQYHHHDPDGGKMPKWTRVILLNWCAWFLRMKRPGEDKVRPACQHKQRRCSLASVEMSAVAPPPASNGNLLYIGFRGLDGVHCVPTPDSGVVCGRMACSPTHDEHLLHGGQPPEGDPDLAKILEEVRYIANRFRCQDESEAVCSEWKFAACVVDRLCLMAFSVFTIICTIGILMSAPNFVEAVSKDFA
Description: as §1
as §1, with “Figure 2” for “Figure 1”, “of (-)-221I” for “of (-)-231C”, “with (-)-221I” for “with (-)-231C”, “with (-)-221I.” for “with (-)-231C.”, “for (-)-221I” for “for (-)-231C”, “five” for “five to six”
as §1, with “Figure 3” for “Figure 1”, “of (-)-epi-193E” for “of (-)-231C”, “with (-)-epi-193E” for “with (-)-231C”, “with (-)-epi-193E.” for “with (-)-231C.”, “for (-)-epi-193E” for “for (-)-231C”, “five” for “five to six”
as §2

[3] = test system: nicotinic acetylcholine receptors; set-up: method as in PMID 1815137; conditions: cited from earlier work
[4] = biological target: T1, α4β2 nicotinic receptor; set-up: method as in PMID 15258256; conditions: cited from earlier work

SMILES	IC50 [1] [µM]	IC50 [2] [µM]	fold higher potency for blockade of α7 than of α4β2 receptor [2] [fold]	mode of action at nicotinic receptors [3]	other results
CCC=CCC1CCC(CC)C2CCCN12 (single isomer, unassigned; (-)) [(-)-221I]	23.1	4.4	5.3	–	–
C=CCC1CCC(CC)C2CCCN12 (single isomer, unassigned; (-)) [(-)-epi-193E]	18	9.1	2.0	–	–
CCCCC[C@@H]1CC[C@@H](C)[C@@H]2CCCN12 [(-)-209B, (5S,8R,9S)-(-)-8-Methyl-5-pentyloctahydroindolizine]	–	–	–	noncompetitive nicotinic blockers	–
C#C/C=C\CCC[C@@H]1CC[C@@H](C)[C@@H]2CCCN12 [(-)-231C, (5R,8R,9S)-(-)-5-Hept-4-en-6-ynyl-8-methyloctahydroindolizine]	1.5	10.7	–	–	peak amplitude of ACh-elicited currents ([1]; 3 μM compound, oocytes expressing α4β2 receptor): greatly decreased; fold higher sensitivity/potency for blockade of α4β2 than of α7 receptor ([1]; ratio of IC50 values, α4β2 over α7): 7.0 fold and 6- to 7 fold; ACh-elicited responses ([2]; 3 μM compound, oocytes expressing α7 receptor): not strongly affected
CC/C=C\CCC[C@@H]1CC[C@@H](C)[C@@H]2CCCN12 [(-)-235B", (5R,8R,9S)-(-)-5-Hept-4-enyl-8-methyloctahydroindolizine]	–	–	–	noncompetitive nicotinic blockers	potency in blocking the α4β2 receptor relative to (-)-231C ([1]; fold greater than (-)-231C, previous (ref 3) versus present data): approximately 20 fold; selectivity for blockade of α4β2 over α7 receptor ([4]; previous data): 6- to 7 fold; effect at the α4β2 nicotinic receptor ([4]; several nicotinic receptor subtypes tested): selective and potent blocking effects; potency at α4β2 receptor compared with dihydro-β-erythroidine ([4]; versus classical α4β2 competitive antagonist): comparable
